Results as given in patent publication US10450549B2, “Aryloxyphenoxypropionate tolerance in turfrgass species and use of AAD1 as a selectable marker” (Dow AgroSciences, LLC, priority 2004, dated 2019).

Key:
Wildtype Arabidopsis = experiment: T1 Arabidopsis spray test, % visual injury 2 WAT: wildtype control; assay type: in vivo, Arabidopsis thaliana; conditions: Wildtype, 2 WAT; for % Injury 20-40% / % Injury <20% / % Injury >40%: number of individuals
Source text: (§1) Random individual T1 plants selected for glufosinate resistance above were confirmed for expression of the PAT protein using a PAT ELISA kit (Part no. 7000045, Strategic Diagnostics, Inc., Newark, Del.) to non-destructively confirm fidelity of selection process (manufacturer's protocol). Plants were then randomly assigned to various rates of phenoxy herbicides (dichlorprop or 2,4-D). […] Elevated rates were applied in subsequent trials (50, 200, 800, or 3200 g ae/ha).
(§2) All auxin herbicide applications were made using the DeVilbiss sprayer as described above to apply 703 L/ha spray volume (0.4 ml solution/3-inch pot) or applied by track sprayer in a 187 L/ha spray volume. […] Dichlorprop used was technical grade (Sigma, St. Louis, Mo.) dissolved in DMSO and diluted in water (<1% DMSO final concentration). As herbicide rates increased beyond 800 g ae/ha, the pH of the spray solution became exceedingly acidic, burning the leaves of young, tender Arabidopsis plants and complicating evaluation of the primary effects of the herbicides. It became standard practice to apply these high rates of phenoxy herbicides in 200 mM Tris buffer (pH 9.0) to a final pH of ˜7-8.
(§3) Although Arabidopsis, being a dicot, is not an optimal system for testing ACCase-inhibiting AOPP grass herbicides, AAD1 (v3)-transformed T1 plants were subjected to elevated rates (400-1600 g ae/ha) of RS-haloxyfop acid (internally synthesized) that do cause growth abnormalities and death of wildtype Arabidopsis using the DeVilbiss sprayer as described above. Injury ratings were taken 7 and 14 days after treatment. Likewise, T1 individuals were treated with the pyridyloxyacetate auxin herbicide, fluroxypyr.
(§4) Table 16. […] Response is presented in terms of % visual injury 2 WAT. […] Since each T1 is an independent transformation event, one can expect significant variation of individual T1 responses within a given rate. An arithmetic mean and standard deviation is presented for each treatment. The range in individual response is also indicated in the last column for each rate and transformation. PAT/Cry1F-transformed Arabidopsis served as an auxin-sensitive transformed control. Wildtype Arabidopsis is untransformed.
(§5) Table 17. T1 Arabidopsis response to a range of dichlroprop rates applied postemergence. Response is presented in terms of % visual injury 2 WAT. […] Since each T1 is an independent transformation event, one can expect significant variation of individual T1 responses within a given rate. An arithmetic mean and standard deviation is presented for each treatment. The range in individual response is also indicated in the last column for each rate and transformation. PAT/Cry1F-transformed Arabidopsis served as an auxin-sensitive transformed control. Wildtype Arabidopsis is untransformed.
as §5, with “18.” for “17.”, “haloxyfop” for “dichlroprop”, “postemergence at artificially high rates attempting to show tolerance of the dicot Arabidopsis to the graminicide.” for “postemergence.”

AAD1 (v1) = biological target: T1, AAD1 (v1) (Sphingobium herbicidovorans, UniProt Q8KSC8); experiment: Colorimetric phenol detection assay of AAD1 (v1) activity (purified enzyme or E. coli extract); assay type: biochemical; conditions: Table 4, substrate 1 mM
T1 construct: made in house; host or cells: E. coli BL-21 Star (DE3), plasmid pDAB3203
T1 sequence (Q8KSC8 whole entry): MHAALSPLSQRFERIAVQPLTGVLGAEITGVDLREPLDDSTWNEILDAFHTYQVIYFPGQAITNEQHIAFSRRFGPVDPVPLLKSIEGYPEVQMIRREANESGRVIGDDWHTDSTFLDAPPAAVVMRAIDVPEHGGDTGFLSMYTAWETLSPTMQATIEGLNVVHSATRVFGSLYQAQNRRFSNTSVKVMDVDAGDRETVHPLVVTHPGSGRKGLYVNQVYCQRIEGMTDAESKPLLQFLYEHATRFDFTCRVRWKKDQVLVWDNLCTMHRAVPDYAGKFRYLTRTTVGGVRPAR

[1] = system: PAT/Cry1F-transformed Arabidopsis; experiment: T1 Arabidopsis spray test, % visual injury 2 WAT: PAT/Cry1F transformed control; assay type: in vivo, Arabidopsis thaliana; conditions: PAT/Cry1F; for % Injury 20-40% / % Injury <20% / % Injury >40%: number of individuals
Source text: as §1, §2, §3, §4, §5
as §5, with “18.” for “17.”, “haloxyfop” for “dichlroprop”, “postemergence at artificially high rates attempting to show tolerance of the dicot Arabidopsis to the graminicide.” for “postemergence.”

How did the “% Injury Ave” value (Wildtype Arabidopsis; 100 g ae/ha) turn out when `CC(Oc1ccc(Oc2ncc(C(F)(F)F)cc2Cl)cc1)C(=O)O` (stereo not shown) [haloxyfop] was run?
The value was 0.0%.

What about the “% Injury Range” value (Wildtype Arabidopsis; 100 g ae/ha) of the same compound?
Its value is 0%.

What about the “% Injury Ave” value (Wildtype Arabidopsis; 200 g ae/ha) of the same compound?
Its value is 0.0%.

And the “% Injury Range” value (Wildtype Arabidopsis; 200 g ae/ha)?
The value was 0%.

And the “% Injury Ave” value (Wildtype Arabidopsis; 400 g ae/ha)?
Its value is 20.0%.

What about the “% Injury Range” value (Wildtype Arabidopsis; 400 g ae/ha) of the same compound?
Its value is 20%.

And the “% Injury Ave” value (Wildtype Arabidopsis; 800 g ae/ha)?
The value was 73.3%.

And the “% Injury Range” value (Wildtype Arabidopsis; 800 g ae/ha)?
Its value is 70-85%.

What about the “% Injury Ave” value (Wildtype Arabidopsis; 1600 g ae/ha) of the same compound?
The value was 93.3%.

What about the “% Injury Range” value (Wildtype Arabidopsis; 1600 g ae/ha) of the same compound?
Its value is 80-100%.

What about the “% Injury 20-40%” value (Wildtype Arabidopsis; 100 g ae/ha) of the same compound?
Its value is 0.

And the “% Injury <20%” value (Wildtype Arabidopsis; 100 g ae/ha)?
The value was 3.

And the “% Injury >40%” value (Wildtype Arabidopsis; 100 g ae/ha)?
The value was 0.

And the “% Injury 20-40%” value (Wildtype Arabidopsis; 200 g ae/ha)?
Its value is 0.

What about the “% Injury <20%” value (Wildtype Arabidopsis; 200 g ae/ha) of the same compound?
The value was 3.

And the “% Injury >40%” value (Wildtype Arabidopsis; 200 g ae/ha)?
The value was 0.

And the “% Injury 20-40%” value (Wildtype Arabidopsis; 400 g ae/ha)?
Its value is 3.

What about the “% Injury <20%” value (Wildtype Arabidopsis; 400 g ae/ha) of the same compound?
The value was 0.

What about the “% Injury >40%” value (Wildtype Arabidopsis; 400 g ae/ha) of the same compound?
The value was 0.

What about the “% Injury 20-40%” value (Wildtype Arabidopsis; 800 g ae/ha) of the same compound?
Its value is 0.

And the “% Injury <20%” value (Wildtype Arabidopsis; 800 g ae/ha)?
Its value is 0.

And the “% Injury >40%” value (Wildtype Arabidopsis; 800 g ae/ha)?
The value was 3.

And the “% Injury 20-40%” value (Wildtype Arabidopsis; 1600 g ae/ha)?
Its value is 0.

What about the “% Injury <20%” value (Wildtype Arabidopsis; 1600 g ae/ha) of the same compound?
Its value is 0.

What about the “% Injury >40%” value (Wildtype Arabidopsis; 1600 g ae/ha) of the same compound?
Its value is 3.

What about the “A510, AAD1” value (AAD1 (v1); 1 μg purified AAD1 (v1) per 0.16 ml assay) of the same compound?
The value was 0.172.

And the “A510, AAD1 (10x)” value (AAD1 (v1); 10 μg purified AAD1 (v1) per 0.16 ml assay)?
Its value is 1.63.

What about the “% Injury Ave” value ([1]; 100 g ae/ha) of the same compound?
The value was 0.0%.

What about the “% Injury Range” value ([1]; 100 g ae/ha) of the same compound?
The value was 0%.

And the “% Injury Ave” value ([1]; 200 g ae/ha)?
The value was 10.0%.

What about the “% Injury Range” value ([1]; 200 g ae/ha) of the same compound?
The value was 10%.

And the “% Injury Ave” value ([1]; 400 g ae/ha)?
The value was 27.5%.

And the “% Injury Range” value ([1]; 400 g ae/ha)?
Its value is 20-30%.

And the “% Injury Ave” value ([1]; 800 g ae/ha)?
Its value is 78.8%.

And the “% Injury Range” value ([1]; 800 g ae/ha)?
The value was 70-85%.

And the “% Injury Ave” value ([1]; 1600 g ae/ha)?
The value was 47.5%.

What about the “% Injury Range” value ([1]; 1600 g ae/ha) of the same compound?
Its value is 80-100%.

What about the “% Injury 20-40%” value ([1]; 100 g ae/ha) of the same compound?
Its value is 0.

And the “% Injury <20%” value ([1]; 100 g ae/ha)?
Its value is 4.

What about the “% Injury >40%” value ([1]; 100 g ae/ha) of the same compound?
Its value is 0.

What about the “% Injury 20-40%” value ([1]; 200 g ae/ha) of the same compound?
Its value is 0.

And the “% Injury <20%” value ([1]; 200 g ae/ha)?
Its value is 4.

What about the “% Injury >40%” value ([1]; 200 g ae/ha) of the same compound?
Its value is 0.

What about the “% Injury 20-40%” value ([1]; 400 g ae/ha) of the same compound?
Its value is 4.

What about the “% Injury <20%” value ([1]; 400 g ae/ha) of the same compound?
Its value is 0.

And the “% Injury >40%” value ([1]; 400 g ae/ha)?
Its value is 0.

What about the “% Injury 20-40%” value ([1]; 800 g ae/ha) of the same compound?
The value was 0.

And the “% Injury <20%” value ([1]; 800 g ae/ha)?
Its value is 0.

What about the “% Injury >40%” value ([1]; 800 g ae/ha) of the same compound?
The value was 4.

What about the “% Injury 20-40%” value ([1]; 1600 g ae/ha) of the same compound?
The value was 0.

And the “% Injury <20%” value ([1]; 1600 g ae/ha)?
Its value is 0.

What about the “% Injury >40%” value ([1]; 1600 g ae/ha) of the same compound?
The value was 4.
